Experimental data reported in ChEMBL document CHEMBL1143834, “Activity of Garenoxacin against Macrolide-Susceptible and -Resistant Mycoplasma pneumoniae” (2007).
≈ marks a conversion by molar mass, not a printed value.

Assays:
Format in all cases: functional
[1] = system: Mycoplasmoides pneumoniae; assay: Antimicrobial activity against macrolide-resistant Mycoplasma pneumoniae with 23S rRNA A2063G mutant isolate 6
[2] = system: Mycoplasmoides pneumoniae; assay: Antimicrobial activity against macrolide-resistant Mycoplasma pneumoniae with 23S rRNA A2064G mutant isolate 2
[3] = system: Mycoplasmoides pneumoniae; assay: Antimicrobial activity against macrolide-resistant Mycoplasma pneumoniae with 23S rRNA A2064G mutant isolate 4
[4] = system: Mycoplasmoides pneumoniae; assay: Antimicrobial activity against macrolide-susceptible Mycoplasma pneumoniae FH
[5] = system: Mycoplasmoides pneumoniae; assay: Antimicrobial activity against macrolide-susceptible Mycoplasma pneumoniae Mac
[6] = system: Mycoplasmoides pneumoniae; assay: Antimicrobial activity against macrolide-susceptible Mycoplasma pneumoniae M129
[7] = system: Mycoplasmoides pneumoniae; assay: Antimicrobial activity against macrolide-resistant Mycoplasma pneumoniae with 23S rRNA A2063G mutant isolate 1

Compound	MIC [1] [µg/mL]	MIC [2] [µg/mL]	MIC [3] [µg/mL]	MIC [4] [µg/mL]	MIC [5] [µg/mL]	MIC [6] [µg/mL]	MIC [7] [µg/mL]
CC[C@H]1OC(=O)[C@H](C)[C@@H](O[C@H]2C[C@@](C)(OC)[C@@H](O)[C@H](C)O2)[C@H](C)[C@@H](O[C@@H]2O[C@H](C)C[C@H](N(C)C)[C@H]2O)[C@](C)(OC)C[C@@H](C)C(=O)[C@H](C)[C@@H](O)[C@]1(C)O [CLARITHROMYCIN]	32 (≈ 42.8 µM)	8 (≈ 10.7 µM)	8 (≈ 10.7 µM)	0.004 (≈ 0.00535 µM)	0.002 (≈ 0.00267 µM)	0.002 (≈ 0.00267 µM)	32 (≈ 42.8 µM)
C[C@H]1NCc2cc(-c3ccc4c(=O)c(C(=O)O)cn(C5CC5)c4c3OC(F)F)ccc21 [GARENOXACIN]	0.031 (≈ 0.0727 µM)	0.016 (≈ 0.0375 µM)	0.016 (≈ 0.0375 µM)	0.016 (≈ 0.0375 µM)	0.016 (≈ 0.0375 µM)	0.016 (≈ 0.0375 µM)	0.016 (≈ 0.0375 µM)
COc1c(N2CCNC(C)C2)c(F)cc2c(=O)c(C(=O)O)cn(C3CC3)c12 (stereo not given) [GATIFLOXACIN]	0.063 (≈ 0.168 µM)	0.063 (≈ 0.168 µM)	0.031 (≈ 0.0826 µM)	0.063 (≈ 0.168 µM)	0.063 (≈ 0.168 µM)	0.063 (≈ 0.168 µM)	0.031 (≈ 0.0826 µM)
C[C@H]1COc2c(N3CCN(C)CC3)c(F)cc3c(=O)c(C(=O)O)cn1c23.C[C@H]1COc2c(N3CCN(C)CC3)c(F)cc3c(=O)c(C(=O)O)cn1c23.O [LEVOFLOXACIN]	0.5	0.25	0.25	0.5	0.25	0.25	0.25
CN(C)c1ccc(O)c2c1C[C@H]1C[C@H]3[C@H](N(C)C)C(O)=C(C(N)=O)C(=O)[C@@]3(O)C(O)=C1C2=O [MINOCYCLINE]	0.25 (≈ 0.546 µM)	0.25 (≈ 0.546 µM)	0.25 (≈ 0.546 µM)	0.5 (≈ 1.09 µM)	0.25 (≈ 0.546 µM)	0.25 (≈ 0.546 µM)	0.25 (≈ 0.546 µM)
